Results on 4 compounds are retold here after US9511143B2, “Aqueous compositions comprising arbekacin” (Meiji Seika Pharma Co., Ltd., priority 2011, dated 2016).

In one data set the test system is P. aeruginosa MSC17707. The data set can be described thus: Experimental pneumonia caused by Pseudomonas aeruginosa in neutropenic mice, inhalation therapy. Conditions: for viable cell counts in the lung in comparison to the non-treatment control group: all the dose levels; for Number of intrapulmonary viable cells: 5 min inhalation 2 h after infection, count 20 h after infection, neutropenic mice, mean ± SD. The format is in vivo. How it is done: The therapeutic effect of arbekacin inhalation on experimental pneumonia in neutropenic mice, caused by P. aeruginosa, was compared with the therapeutic effect of amikacin and tobramycin.
Cyclophosphamide (Sigma-Aldrich Co.) was dissolved in physiological saline. Four to five week-old Crlj:CD1(ICR) male mice were immunosuppressed by intraperitoneal injection of 150 and 100 mg/kg of cyclophosphamide solution 4 days and 1 day before infection, respectively. Thereafter, pulmonary infection was induced by intranasal inoculation of amikacin- and tobramycin-resistant P. aeruginosa having the aac(6)-lae encoding an aminoglycoside modifying enzyme. The antibiotics dissolved in saline were administered to each mouse using an electronic vibrating membrane nebulizer (eFlow®, PARI Pharma GmbH, spray flow rate: approximately 0.5 ml/min) two hours after the infection, and viable cells per lung were counted 20 hours after the infection. As for the doses of arbekacin, three levels were set at 3, 10 and 30 mg/ml, and the respective doses of amikacin and tobramycin were at three levels of 10, 30, and 100 mg/ml. The inhalation duration was five minutes. Meanwhile, physiological saline was administered to a non-treatment control group.

The subject of the next data set is guinea pigs. Set-up: species or system guinea pig (male Hartley strain). The following applies: guinea pig, in vivo. How it is done:
A guinea-pig cough induction model was used to investigate differences in cough induction between the sulfate and hydrochloride forms of arbekacin. The tested substances were commercially available arbekacin sulfate (ABK—H2SO4) and arbekacin hydrochloride (ABK—HCl) that was prepared from arbekacin free base according to the method described in Example 2. The concentration of dosing solutions was set to be 25 mg/ml. In addition, physiological saline was used as a negative control agent whereas citric acid (30 mg/ml) was used as a positive control agent.
Male Hartley strain guinea pigs were subjected to the experiment, with 10 animals per group. […] Cough was detected on the basis of the following indicators: observation of symptoms, analysis of a respiration pattern in the soma-side by a double-flow plethysmograph method using a multi-functional respiration measuring device (Win Pulmos-I, M-I-P-S Corporation), and pressure changes in head-side and soma-side chambers measured by a pressure transducer (blood pressure monitoring kit, Japan Becton, Dickinson and Company). The case, in which a motion of coughing in the symptom observation was noted together with typical changes in the pressure in the head-side and soma-side chambers and in the respiration pattern of the soma side at the time of coughing, was determined to be a cough reflex. […] Then, the occurrence of cough reflex was counted. […]

`NCC[C@H](O)C(=O)N[C@@H]1C[C@H](N)[C@@H](O[C@H]2O[C@H](CN)[C@@H](O)[C@H](O)[C@H]2O)[C@H](O)[C@H]1O[C@H]1O[C@H](CO)[C@@H](O)[C@H](N)[C@H]1O` [Amikacin, amikacin]: in the data set on P. aeruginosa MSC17707, the “viable cell counts in the lung in comparison to the non-treatment control group” value is “significantly decreased”. For the same compound, the entries for the “Number of intrapulmonary viable cells” value in the data set on P. aeruginosa MSC17707 (level of drug 10 mg/ml), with P. aeruginosa MSC17707 (level of drug 30 mg/ml) and in the data set on P. aeruginosa MSC17707 (level of drug 100 mg/ml) were 5.65 ± 1.55 log10 CFU/lung, 4.46 ± 1.68 log10 CFU/lung and 2.65 ± 1.74 log10 CFU/lung, respectively.

On to `NCC[C@H](O)C(=O)N[C@@H]1C[C@H](N)[C@@H](O[C@H]2O[C@H](CN)CC[C@H]2N)[C@H](O)[C@H]1O[C@H]1O[C@H](CO)[C@@H](O)[C@H](N)[C@H]1O` [Arbekacin, arbekacin], for which, in the data set with P. aeruginosa MSC17707, the “viable cell counts in the lung in comparison to the non-treatment control group” value was “significantly decreased”. Moreover, the entries for the “Number of intrapulmonary viable cells” value in the data set with P. aeruginosa MSC17707 (level of drug 3 mg/ml), with P. aeruginosa MSC17707 (level of drug 10 mg/ml) and in the data set on P. aeruginosa MSC17707 (level of drug 30 mg/ml) were 4.07 ± 2.18 log10 CFU/lung, 2.20 ± 0.99 log10 CFU/lung and 1.98 ± 0.83 log10 CFU/lung, respectively. In addition, the “therapeutic effect compared to amikacin and tobramycin” value in the data set with P. aeruginosa MSC17707 (same dosage (10 or 30 mg/ml)) is “significantly superior”.

As for `O=C(O)CC(O)(CC(=O)O)C(=O)O` [Citric Acid, citric acid], in the data set with guinea pigs, the “number of occurrence of cough reflex / cough induction, comparison between groups” value is recorded as “significantly higher”.

In the case of `NC[C@H]1O[C@H](O[C@H]2[C@H](O)[C@@H](O[C@H]3O[C@H](CO)[C@@H](O)[C@H](N)[C@H]3O)[C@H](N)C[C@@H]2N)[C@H](N)C[C@@H]1O` [Tobramycin, tobramycin], the “viable cell counts in the lung in comparison to the non-treatment control group” value with P. aeruginosa MSC17707 is given as “significantly decreased”. For the same compound, the “Number of intrapulmonary viable cells” value in the data set with P. aeruginosa MSC17707 (level of drug 10 mg/ml) is recorded as 5.74 ± 1.57 log10 CFU/lung; in the data set on P. aeruginosa MSC17707 (level of drug 30 mg/ml), 3.48 ± 1.85 log10 CFU/lung; in the data set with P. aeruginosa MSC17707 (level of drug 100 mg/ml), 3.53 ± 1.88 log10 CFU/lung.
